Data on 26 compounds can be found in US6987114B1, “Antiviral pyrimidinedione derivatives and process for the preparation thereof” (Samjin Pharmaceutical Co., Ltd, priority 1999, dated 2006).

In brackets after ≈: the same amount, converted by molar mass. Read-outs that look alike come from different tables or passages of the source. A value given as a limit tells only on which side of the number the result lay.

In one data set the test system is HIV. Description: microbe, parasite or virus in culture. The class given is cell-based. Put shortly:
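MT-4 cells (2.5×10^5 cells/ml) infected with 1000 CCID50 HIV, added at once to compound dilutions, incubated 4 or 5 days at 37° C. Protection from virus-induced cytopathic effect read by MTT; cytotoxicity from MTT viability of mock-infected cells in parallel.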

Another data set has as its system mock-infected MT-4 cells. As to the kind of experiment: Cytotoxicity based on viability of mock-infected host cells (MTT method). The class given is cell-based. To be noted: mock-infected MT-4 cells, MTT method, 4 or 5 days at 37° C. In short, it runs like this: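 Mock-infected MT-4 cells at 2.5×10^5 cells/ml were exposed to various concentrations of test compound, run in parallel with HIV-infected (1000 CCID50) cultures. After 4 or 5 days at 37° C., host-cell viability was read by MTT.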
(Tetrazolium assays rely on reduction of a dye to a coloured formazan, in cell work by metabolically active cells.)

Where [1] appears, read: Human immunodeficiency virus 1, MT4, HIV-infected MT-4 cells, MTT method, 4 or 5 days at 37° C., read-out: ED50 (the source's name).
Where [2] appears, read: Human immunodeficiency virus 1, MT4, read-out: ED50.

`CCc1c(C(=O)c2cc(C)cc(C)c2)n(Cc2cc(F)cc(F)c2)c(=O)[nH]c1=O` [Example 77, 1-(3,5-Difluorobenzyl)-5-ethyl-6-(3,5-dimethylbenzoyl)-2,4-pyrimidinedione]: the melting point – broadly, the temperature, or range, at which the solid turns liquid – lay in the range of 165 to 167 °C. In addition, in the data set on HIV (setting [1]), the EC50 is 0.003 µg/mL (≈ 0.00753 µM). The CD50 with mock-infected MT-4 cells was 7.0 µg/mL.
The like results for `CCc1c(Oc2cc(C)cc(C)c2)n(Cc2cc(OC)cc(OC)c2)c(=O)[nH]c1=O` [Example 57, 1-(3,5-Dimethoxybenzyl)-5-ethyl-6-(3,5-dimethylphenoxy)-2,4-pyrimidinedione] were, in that order, 154 to 156 °C, 1.37 µg/mL (≈ 3.34 µM) and 36.80 µg/mL.
Take `Cc1cc(C)cc(Sc2c(C(C)C)c(=O)[nH]c(=O)n2Cc2ccc(OC(F)(F)F)cc2)c1` [Example 32, 1-(4-Trifluoromethoxybenzyl)-5-isopropyl-6-(3,5-dimethylphenyl)thio-2,4-pyrimidinedione]: the melting point was in the range of 124 to 126 °C. For the same compound, the EC50 in the data set with HIV (setting [1]) came out at 0.017 µg/mL (≈ 0.0366 µM). Also, in the data set with mock-infected MT-4 cells, the CD50 was 8.99 µg/mL.
`Cc1cc(C)cc(C(=O)c2c(C(C)C)c(=O)[nH]c(=O)n2Cc2ccc(OC(F)(F)F)cc2)c1` [Example 36, 1-(4-Trifluoromethoxybenzyl)-5-isopropyl-6-(3,5-dimethyl-benzoyl)-2,4-pyrimidinedione] had a melting point of 79 to 81 °C. The EC50 in the data set with HIV (setting [1]) came to 0.005 µg/mL (≈ 0.0109 µM). The CD50 in the data set with mock-infected MT-4 cells was 7.88 µg/mL.
For `CCc1c(Sc2cc(C)cc(C)c2)n(Cc2cc(F)cc(F)c2)c(=O)[nH]c1=O` [Example 73, 1-(3,5-Difluorobenzyl)-5-ethyl-6-(3,5-dimethylphenyl)thio-2,4-pyrimidinedione], the melting point was in the range of 219 to 221 °C. Moreover, the EC50 in the data set on HIV (setting [1]) was 0.016 µg/mL (≈ 0.0398 µM). The CD50 with mock-infected MT-4 cells is more than 100.00 µg/mL.
Take `CCc1c(Oc2cc(C)cc(C)c2)n(Cc2c3ccccc3cc3ccccc23)c(=O)[nH]c1=O` [Example 99, 1-(Anthracen-9-ylmethyl)-5-ethyl-6-(3,5-dimethyl-phenoxy)-2,4-pyrimidinedione]: the melting point was in the range of 243 to 245 °C. Moreover, the EC50 in the data set on HIV (setting [2]) is more than 4.12 µg/mL. In the data set on mock-infected MT-4 cells, the CD50 turned out to be 4.12 µg/mL.
Regarding `CCC(=O)Cn1c(C(=O)c2cc(C)cc(C)c2)c(C(C)C)c(=O)[nH]c1=O` [Example 164, 1-(2-Butanon-1-yl)-5-isopropyl-6-(3,5-dimethylbenzoyl)-2,4-pyrimidinedione], the melting point was in the range of 174 to 176 °C. In addition, the EC50 with HIV (setting [2]) amounted to 0.0026 µg/mL (≈ 0.00729 µM). The CD50 in the data set with mock-infected MT-4 cells was found to be 20.58 µg/mL.
For `Cc1cc(C)cc(Sc2c(C(C)C)c(=O)[nH]c(=O)n2Cc2cc(F)ccc2F)c1` [Example 68, 1-(2,5-Difluorobenzyl)-5-isopropyl-6-(3,5-dimethylphenyl)thio-2,4-pyrimidinedione], the melting point lay within 192 to 194 °C. The EC50 with HIV (setting [1]) came out at 0.005 µg/mL (≈ 0.012 µM). This compound displayed a CD50 in the data set on mock-infected MT-4 cells of 4.15 µg/mL.
`Cc1cc(C)cc(C(=O)c2c(C(C)C)c(=O)[nH]c(=O)n2Cc2cc(C(F)(F)F)cc(C(F)(F)F)c2)c1` [Example 66, 1-[3,5-Bis(Trifluoromethyl)benzyl]-5-isopropyl-6-(3,5-dimethyl-benzoyl)-2,4-pyrimidinedione] returned a melting point of 178 to 180 °C. Moreover, the EC50 in the data set on HIV (setting [1]) amounted to 1.75 µg/mL (≈ 3.41 µM). In addition, in the data set with mock-infected MT-4 cells, the CD50 came out at 8.14 µg/mL.
Taken in the same sequence, the figures for `Cc1cc(C)cc(C(=O)c2c(C(C)C)c(=O)[nH]c(=O)n2Cc2cc(F)ccc2F)c1` [Example 72, 1-(2,5-Difluorobenzyl)-5-isopropyl-6-(3,5-dimethylbenzoyl)-2,4-pyrimidinedione] were 205 to 207 °C, 0.003 µg/mL (≈ 0.00727 µM) and 5.26 µg/mL.
`Cc1cc(C)cc(C(=O)c2c(C(C)C)c(=O)[nH]c(=O)n2CC2CCC2)c1` [Example 12, 1-(Cyclobutyl)methyl-5-isopropyl-6-(3,5-dimethylbenzoyl)-2,4-pyrimidinedione] showed a melting point of 171 to 173 °C. Further, the EC50 with HIV (setting [1]) came out at 0.0027 µg/mL (≈ 0.00762 µM). The same compound displayed a CD50 in the data set on mock-infected MT-4 cells of 8.5 µg/mL.
Compound `CCc1c(C(=O)c2cc(C)cc(C)c2)n(CC2CCCCC2)c(=O)[nH]c1=O` [Example 17, 1-(Cyclohexyl)methyl-5-ethyl-6-(3,5-dimethylbenzoyl)-2,4-pyrimidinedione] displayed a melting point of 177 to 179 °C. Moreover, the EC50 with HIV (setting [2]) was 0.013 µg/mL (≈ 0.0353 µM). Also, the CD50 with mock-infected MT-4 cells amounted to 7.10 µg/mL.
As for `Cc1cc(C)cc(C(=O)c2c(C(C)C)c(=O)[nH]c(=O)n2Cc2cc(F)cc(F)c2)c1` [Example 78, 1-(3,5-Difluorobenzyl)-5-isopropyl-6-(3,5-dimethylbenzoyl)-2,4-pyrimidinedione], the melting point lay in the range of 207 to 209 °C. Moreover, in the data set with HIV (setting [1]), the EC50 was found to be 0.0033 µg/mL (≈ 0.008 µM). In addition, in the data set with mock-infected MT-4 cells, the CD50 was 7.1 µg/mL.
The like results for `CCc1c(Sc2cc(C)cc(C)c2)n(Cc2ccc3ccccc3n2)c(=O)[nH]c1=O` [Example 131, 1-(Quinolin-2-ylmethyl)-5-ethyl-6-(3,5-dimethylphenyl)-thio-2,4-pyrimidinedione] were, in that order, 107 to 110 °C, more than 10.6 µg/mL and 10.60 µg/mL.
For `CCc1c(Oc2cc(C)cc(C)c2)n(Cc2cc(C)cc(C)c2)c(=O)[nH]c1=O` [Example 51, 1-(3,5-Dimethylbenzyl)-5-ethyl-6-(3,5-dimethylphenoxy)-2,4-pyrimidinedione], the melting point was 130 to 132 °C. Besides, the EC50 in the data set with HIV (setting [2]) was found to be 0.13 µg/mL (≈ 0.343 µM). Moreover, the CD50 in the data set with mock-infected MT-4 cells amounted to 8.01 µg/mL.
Regarding `CCc1c(Sc2cc(C)cc(C)c2)n(Cc2cc(C(F)(F)F)cc(C(F)(F)F)c2)c(=O)[nH]c1=O` [Example 61, 1-[3,5-Bis(trifluoromethyl)benzyl]-5-ethyl-6-(3,5-dimethyl-phenyl)thio-2,4-pyrimidinedione], the melting point was 212 to 213 °C. Moreover, in the data set with HIV (setting [1]), the EC50 is more than 100 µg/mL. In addition, the CD50 with mock-infected MT-4 cells is more than 100.00 µg/mL.
For the compound `Cc1cc(C)cc(Oc2c(C(C)C)c(=O)[nH]c(=O)n2Cc2cccnc2)c1` [Example 118, 1-(Pyridin-3-ylmethyl)-5-isopropyl-6-(3,5-dimethylphenoxy)-2,4-pyrimidinedione], the melting point was 190 to 193 °C. In addition, in the data set on HIV (setting [2]), the EC50 was 0.015 µg/mL (≈ 0.041 µM). For the same compound, in the data set with mock-infected MT-4 cells, the CD50 is 33.50 µg/mL.
As to `Cc1cc(C)cc(Oc2c(C(C)C)c(=O)[nH]c(=O)n2Cc2cccc(Br)n2)c1` [Example 128, 1-(2-Bromopyridin-6-ylmethyl)-5-isopropyl-6-(3,5-dimethylphenoxy)-2,4-pyrimidinedione], the melting point fell in the range of 228 to 230 °C. For the same compound, the EC50 with HIV (setting [1]) stood at 0.079 µg/mL (≈ 0.178 µM). Further, the CD50 in the data set with mock-infected MT-4 cells turned out to be 48.27 µg/mL.
In the case of `CCc1c(Oc2cc(C)cc(C)c2)n(Cc2cc(Cl)cc(Cl)c2)c(=O)[nH]c1=O` [Example 81, 1-(3,5-Dichlorobenzyl)-5-ethyl-6-(3,5-dimethylphenoxy)-2,4-pyrimidinedione], the melting point fell in the range of 194 to 196 °C. Further, in the data set with HIV (setting [2]), the EC50 was found to be 1.16 µg/mL (≈ 2.77 µM). In the data set on mock-infected MT-4 cells, this compound had a CD50 of more than 100.00 µg/mL.
With `CCc1c(C(=O)c2cc(C)cc(C)c2)n(Cc2cc(C)cc(C)c2)c(=O)[nH]c1=O` [Example 53, 1-(3,5-Dimethylbenzyl)-5-ethyl-6-(3,5-dimethylbenzoyl)-2,4-pyrimidinedione], the melting point is 188 to 190 °C. Further, the EC50 in the data set on HIV (setting [2]) worked out at 0.014 µg/mL (≈ 0.0359 µM). In addition, the CD50 with mock-infected MT-4 cells stood at 2.50 µg/mL.
In the case of `Cc1cc(C)cc(Oc2c(C(C)C)c(=O)[nH]c(=O)n2Cn2nnc3ccccc32)c1` [Example 142, 1-(1H-benzotriazol-1-ylmethyl)-5-isopropyl-6-(3,5-dimethylphenoxy)-2,4-pyrimidinedione], the melting point fell in the range of 278 to 279 °C. In addition, in the data set on HIV (setting [1]), the EC50 came to 0.044 µg/mL (≈ 0.109 µM). In the data set with mock-infected MT-4 cells, this compound had a CD50 of more than 100.00 µg/mL.
On to `Cc1cc(C)cc(C(=O)c2c(C(C)C)c(=O)[nH]c(=O)n2Cc2cccc(C#N)c2)c1` [Example 48, 1-(3-Cyanobenzyl)-5-isopropyl-6-(3,5-dimethylbenzoyl)-2,4-pyrimidinedione], for which the melting point is 202 to 204 °C. The EC50 in the data set with HIV (setting [2]) was 0.003 µg/mL (≈ 0.00747 µM). Besides, in the data set with mock-infected MT-4 cells, the CD50 amounted to 8.07 µg/mL.
In the case of `Cc1cc(C)cc(C(=O)c2c(C(C)C)c(=O)[nH]c(=O)n2Cc2ccc3c(c2)C(=O)c2ccccc2C3=O)c1` [Example 108, 1-(Anthraquinon-2-ylmethyl)-5-isopropyl-6-(3,5-dimethylbenzoyl)-2,4-pyrimidinedione], the melting point was 156 to 158 °C. The EC50 in the data set with HIV (setting [1]) worked out at 0.017 µg/mL (≈ 0.0336 µM). The CD50 in the data set on mock-infected MT-4 cells was 14.41 µg/mL.
Compound `Cc1cc(C)cc(Oc2c(C(C)C)c(=O)[nH]c(=O)n2Cc2ccccn2)c1` [Example 112, 1-(Pyridin-2-ylmethyl)-5-isopropyl-6-(3,5-dimethylphenoxy)-2,4-pyrimidinedione] gave a melting point of 220 to 223 °C. Also, the EC50 with HIV (setting [1]) is 0.029 µg/mL (≈ 0.0794 µM). The CD50 with mock-infected MT-4 cells is more than 100.00 µg/mL.
Consider `COc1cc(Cn2c(Sc3cc(C)cc(C)c3)c(C(C)C)c(=O)[nH]c2=O)cc(OC)c1` [Example 56, 1-(3,5-Dimethoxybenzyl)-5-isopropyl-6-(3,5-dimethyl-phenyl)thio-2,4-pyrimidinedione], for which the melting point is 157 to 160 °C. Also, the EC50 with HIV (setting [1]) was 0.21 µg/mL (≈ 0.477 µM). Besides, the CD50 in the data set with mock-infected MT-4 cells was 11.34 µg/mL.
With `CCc1c(C(=O)c2cc(C)cc(C)c2)n(CC(C)=O)c(=O)[nH]c1=O` [Example 159, 1-(Acetonyl)-5-ethyl-6-(3,5-dimethylbenzoyl)-2,4-pyrimidinedione], the melting point fell in the range of 186 to 189 °C. The EC50 in the data set on HIV (setting [2]) came out at 0.0018 µg/mL (≈ 0.00548 µM). The compound also returned a CD50 in the data set with mock-infected MT-4 cells of 11.8 µg/mL.
